Marks after values point to notes of the source that are not given here.
Assays:
TG-mice = assay: Elevated plus maze (EPM), anxiety in TG-mice; assay type: in vivo; settings: 2 mg/kg, 3 months
Description: 2) Whole-Cell Patch-Clamp Recordings from Brain Slices. Transverse slices (400 lm) of dorsal hippocampus were obtained from wt and TG-SwDI mice (male, 20 months old) using a vibratome (VT 100; Technical Products International). Slices were perfused continuously with artificial CSF (ACSF) composed of the following (in mM): 125 NaCl, 2.5 KCl, 2 CaCl2, 2 MgCl2, 26 NaHCO3, and 10 D-glucose. The ACSF was bubbled continuously with 95% O2/5% CO2 to ensure adequate oxygenation of slices and a pH of 7.4 and kept at 34±0.5° C. for perfusion. TTX (0.5 μM), APV (40 μM), CNQX (10 μM), and CGP54626 (1 μM, GABABR antagonist) were added to ACSF to pharmacologically isolate GABAAR-mediated mIPSCs. […] Animals were placed on the central area of the maze, tested for 5 min and video recorded. The following measures were scored: number of entries into open arms, closed arms, or center platform and time spent in each of these areas. […]
6) The elevated plus maze assay (EPM) was performed in a quiet and dark room with only a low power red light. […] were placed on the central area of the maze, and their behavior video recorded for 5 min. The number of entries into open arms, closed arms, or center platform and time spent in each of these areas were scored during off-line analysis. […]
Locomotor activity was assayed with open field test. Running distance is one of the parameters quantifying locomotor activity (FIG. 4A). […]

Water solubility = assay type: physicochemical; settings: compared with natural DHM
GABAARs = assay: Whole-cell voltage-clamped recordings from hippocampal DGCs in slices (Itonic, mIPSCs); assay type: cell-based, rats; settings: for GABAergic Itonic: basal Itonic 20 pA
Description: 2) Whole-Cell Patch-Clamp Recordings from Brain Slices. Transverse slices (400 lm) of dorsal hippocampus were obtained from wt and TG-SwDI mice (male, 20 months old) using a vibratome (VT 100; Technical Products International). Slices were perfused continuously with artificial CSF (ACSF) composed of the following (in mM): 125 NaCl, 2.5 KCl, 2 CaCl2, 2 MgCl2, 26 NaHCO3, and 10 D-glucose. The ACSF was bubbled continuously with 95% O2/5% CO2 to ensure adequate oxygenation of slices and a pH of 7.4 and kept at 34±0.5° C. for perfusion. TTX (0.5 μM), APV (40 μM), CNQX (10 μM), and CGP54626 (1 μM, GABABR antagonist) were added to ACSF to pharmacologically isolate GABAAR-mediated mIPSCs. Patch electrodes were filled with internal solution containing the following (in mM): 137 CsCl, 2 MgCl2, 1 CaCl2, 11 EGTA, 10 HEPES, and 3 ATP, pH adjusted to 7.30 with CsOH. Recordings targeted dentate gyms granule cells (DGCs) of hippocampal slices. Voltage-clamp whole-cell recording was performed using a patch clamp amplifier 3) EPM: All animals were tested anxiety levels on EPM. Animals were placed on the central area of the maze, tested for 5 min and video recorded. The following measures were scored: number of entries into open arms, closed arms, or center platform and time spent in each of these areas. Data were reported as % of number of entries in arms, % of time spent in different entries, and number of total entries.
To evaluate whether DHM-Piperidine Complex (D-P) can still potentiate GABAARs, whole-cell voltage-clamped recordings from hippocampal DGCs in slices were performed to test D-P and compared with DHM effects on GABAergic tonic current (Itonic) and miniature inhibitory postsynaptic currents (mIPSCs). […] Compared with DHM enhancing GABAergic Itonic from 20 pA (basal Itonic)→28 pA→31 pA→52 pA→55 pA, D-P enhancing GABAergic Itonic from 20 pA (basal Itonic)→35 pA→42 pA →65 pA→70 pA (Table 1).

## piperidin-1-ium (2R,3R)-2-(3,4-dihydroxy-5-oxidophenyl)-3,5-dihydroxy-4-oxochroman-7-olate [D-P]
TG-mice
  time in open and closed arms (EPM): spent a similar amount of time in each arm
Water solubility
  water solubility: can be dissolved into water
GABAARs; 0.1 μM
  Itonic, percent in brackets (increase over basal): (75%)*
  mIPSCs (area potentiated): 16.7%*
  GABAergic Itonic: 35 pA
GABAARs; 0.3 μM
  Itonic, percent in brackets (increase over basal): (110%)*
  mIPSCs (area potentiated): 23.3%*
  GABAergic Itonic: 42 pA
GABAARs; 1 μM
  Itonic, percent in brackets (increase over basal): (225%)*
  mIPSCs (area potentiated): 100.0%*
  GABAergic Itonic: 65 pA
GABAARs; 10 μM
  Itonic, percent in brackets (increase over basal): (250%)*
  mIPSCs (area potentiated): 133.3%*
  GABAergic Itonic: 70 pA

Source: US12194021B2, “Modified herbal compositions for neuromodulation” (University of Southern California, priority 2021, dated 2025)
